Measurements as given in publication PMC4445002, “Efficient inhibition of tumor angiogenesis and growth by a synthetic peptide blocking S100A4-methionine aminopeptidase 2 interaction” (Molecular Therapy. Methods & Clinical Development, 2015).

Columns and labels:
[1] = system: S100A4-MetAP2 interaction; experiment: In vitro GST pull-down binding assay S100A4-MetAP2; details: [35S]MetAP2, GST/S100A4, 1 mmol/l CaCl2; peptide at 25-fold molar excess of MetAP2
[2] = system: MSS31 cells; experiment: Capillary formation (tube formation) on Matrigel; assay type: cell-based, mouse
[3] = system: new blood vessel formation in BALB/c nude mice; experiment: Directed in vivo angiogenesis assay (DIVAA) in nude mice; design: species or system mouse; details: angioreactors with Afs (bFGF, VEGF, heparin), peptide (1 mg/ml) with atelocollagen, s.c. implant, 15 days, n = 3; NBD P < 0.01
[4] = system: NMIIA (Ser1943) in MSS31 cells; experiment: NMIIA Ser1943 phosphorylation by western blot; assay type: cell-based, mouse; details: 5 μg/well, 18 hours
Experimental: Figure 6 Stimulation of NMIIA phosphorylation and filament assembly by the NBD peptide. MSS31 cells incubated with atelocollagen alone or the peptide/atelocollagen complexes were subjected to western blot analysis and immunofluorescent staining. (a) Western blot analysis of NMIIA phosphorylation. Total cellular proteins were subjected to immunoblot analysis. The band intensity of p-NMIIA relative to that of total NMIIA was measured using ImageJ software and normalized to control cells. (b) NMIIA assembly. MSS31 cells were simultaneously incubated with rabbit polyclonal anti-S100A4 antibody and mouse monoclonal anti-NMIIA antibody followed by Alexa Fluor 488-conjugated goat antirabbit IgG and Alexa Fluor 594-conjugated goat antimouse IgG. Nuclei were stained with DAPI. Scale bars: 50 μm. (c) Blockade of S100A4-NMIIA interaction by the NBD peptide. MSS31 cells were immunostained as in a. White arrows and yellow arrows indicate colocalized areas and independently localized areas of S100A4 and NMIIA, respectively. Bars: 20 μm. TEXT PRINTED IN THE PICTURE: (a) NBD: p-NMIIA/total NMIIA: 1.78 | (a) CBD: p-NMIIA/total NMIIA: 0.66 […]

[5] = system: FAK (Tyr397) in MSS31 cells; experiment: FAK Tyr397 phosphorylation by western blot; assay type: cell-based, mouse; details: vs control and CBD peptide-treated cells; 5 μg/well, 18 hours
Experimental: (§1) Figure 7 Stimulation of the formation of focal contacts by the NBD peptide. MSS31 cells incubated with atelocollagen alone or the peptide/atelocollagen complexes were subjected to immunofluorescent staining and western blot analysis. (a) Formation of focal adhesions. The cells were immunostained with antivinculin or anti-integrin β1 antibody followed by Alexa Fluor 488-conjugated secondary antibody. F-actin was visualized with Atto 647N-Phalloidin. Nuclei were stained with DAPI. Scale bars: 50 μm. (b) Western blot analysis of focal adhesion proteins. Total cellular proteins were subjected to immunoblot analysis. (c) Relative expression level of vinculin (VCN), integrin β1 (ITGβ1) and p-FAK. The band intensity of VCN and ITGβ1 and p-FAK relative to that of β-actin and total FAK, respectively, was measured using ImageJ software and normalized to control cells.
(§2) MSS31 cells cultured in six-well plates were incubated with 5 μg/well of the NBD or the CBD peptide/atelocollagen complex or atelocollagen alone for 18 hours and were lysed in M-PER Mammarian Protein Extraction Reagent (Thermo Fisher Scientific, Waltham, MA) containing complete, EDTA-free, EASYpack (Roche Applied Science, Penzberg, Upper Bavaria, Germany) and Halt Phosphatase Inhibitor Cocktail (Thermo Fisher Scientific). The lysates was used for immunoblot analysis. […]

[6] = system: vinculin, integrin β1 and FAK in MSS31 cells; experiment: Expression of vinculin, integrin β1 and FAK by western blot; assay type: cell-based, mouse; details: total cell lysates, vs control cells; 5 μg/well, 18 hours
Experimental: as §1, §2

[7] = system: angiogenesis-related genes in MSS31 cells; experiment: Expression of angiogenesis-related genes by qRT-PCR; assay type: cell-based, mouse; details: atelocollagen complex, retn, fgf18, aqp1, map3k5, thy1, foxo6, hs6st1, cdkn1a, thbs1, spry4
Experimental: Therefore, an alternative action mechanism of the NBD peptide would be the modulation of the expression of these angiogenesis-related genes.
Caspase3/7 assays was performed with Apo-ONE Caspase-3/7 Assay
Reagent (Promega). No significant changes are observed.
F i g . […]
PC-3M-Luc cells were treated with atelocollagen alone or the NBD peptide/atelocollagen complex in vitro, and their growth rate was monitored.
The values represent cell growth rate relative to that of control cells that is […]
MSS31 cells were incubated with the peptide/atelocollagen complexes.
Isolation of total RNA and subsequent qRT-PCR analysis were carried out as described previously (30). The GAPDH gene was used as an internal control.
(a) Proangiogenic genes in NBD and CBD peptides-treated cells. (b)
Antiangiogenic genes in NBD and CBD peptides-treated cells.

For “NBD: N-terminal 39 amino acid sequence of SBD, from Arg170 to Ileu208; corresponding to MetAP2 (170–208) (REAAEAHRQVRKYVMSWIKPGMTMIEICEKLEDCSRKLI)”, the “inhibition of S100A4-MetAP2 interaction (GST pull-down)” value [1] was “inhibited the binding as efficiently as SBD”, the “time at which inhibition of capillary formation is apparent” value ([2]; after peptide loading, Supplementary Figure S4) was at most 6 h and the “tube (capillary) formation” value ([2]; atelocollagen complex, 5 μg/well, Matrigel with 50 ng/ml HGF, 16 hours, n = 6, *P < 0.01) was “severely impaired tube formation”. For the same substance, the “in vivo angiogenesis (DIVAA)” value [3] was “potently suppressed the angiogenic factors-induced angiogenesis”, the “Ser1943 phosphorylation of NMIIA” value ([4]; atelocollagen complex) was “enhanced Ser1943 phosphorylation of NMIIA” and the “p-NMIIA/total NMIIA” value ([4]; band intensity, normalized to control cells (atelocollagen alone)) was 1.78. The “phosphorylation of Tyr397 of FAK” value [5] was “no significant increase in the phosphorylation of Tyr397 of FAK”, the “expression of vinculin, integrin β1 and FAK” value [6] was “no significant difference in the expressions of vinculin, integrin β1 and FAK” and the “expression of angiogenesis-related genes” value [7] was “could not detect any alteration of the expression of these genes”.
